From BigSolDB 2.1

COc1c(C)c2c(c(O)c1C/C=C(\C)CCC(=O)OCCN1CCOCC1)C(=O)OC2
solubility (mole fraction)
Conditions | in DMSO | in ethanol | in ethyl acetate | in ethylene glycol | in isopropanol | in n-butanol | in propylene glycol | in transcutol | in water
298.2 K | 0.023 | 0.00613 | 0.0689 | 0.000715 | 0.00852 | 0.0108 | 0.00105 | 0.0393 | 1.75e-06
303.2 K | 0.0272 | 0.00676 | 0.0744 | 0.000858 | 0.00934 | 0.0119 | 0.00126 | 0.0421 | 2.29e-06
308.2 K | 0.0328 | 0.00749 | 0.0802 | 0.00103 | 0.0102 | 0.0132 | 0.00147 | 0.0452 | 2.87e-06
313.2 K | 0.0388 | 0.00833 | 0.0856 | 0.0012 | 0.0111 | 0.0144 | 0.00168 | 0.0486 | 3.49e-06
318.2 K | 0.0439 | 0.00906 | 0.0928 | 0.0014 | 0.0121 | 0.0159 | 0.00193 | 0.0522 | 4.16e-06

Conditions | solubility (mole fraction)
in PEG-400, 298.2 K | 0.0271
in PEG-400, 303.2 K | 0.0312
in PEG-400, 308.2 K | 0.0355
in PEG-400, 313.2 K | 0.0399
in PEG-400, 318.2 K | 0.0449
